Assay type in all cases: cell-based, human
Assay [1] relates to NRAS mutant melanoma cells. The experiment in a line: Telomere dysfunction-induced foci (TIF) assay. The following applies: 6-thio-dG for 7 days. As to the method:
Supplementary FIGS. 6a-b. […] NRAS mutant melanoma cells WM3000 were transduced with TERT shRNA and treated with NAC […] for 7 days. (Supplementary FIG. 6a) TIFs were assessed by indirect immunofluorescence combined with fluorescence in situ hybridization (FISH). Representative images are shown (scale bar=10 μm). (Supplementary FIG. 6b) Quantification of TIF positive cells. Cells were scored as TIF positive when three or more y-H2AS foci (green) were co-localizing with telomere foci (red). Data represent average of thirteen fields imaged +/−SD.
Supplementary FIGS. 8a-d. NRAS mutant melanoma cells are sensitive to the telomere uncapping agent 6-thio-dG. NRAS^mut melanoma cells were treated with 6-thio-dG for 6, 12 or 18 days. (Supplementary FIG. 8a) Relative cell number was assessed by Cyrstal Violet assay and calculated relative to DMSO-treated cells. […] (Supplementary FIG. 8c) NRAS^mut cells were treated with 6-thio-dG for 7 days and telomere-induced foci (TIF) were determined by indirect immunofluorescence combined with fluorescence in situ hybridization (FISH). […] (Supplementary FIG. 8d) Quantification of TIF assay. Cells were scored as TIF-positive when four or more γ-H2AX foci (green) were co-localizing with telomere foci (red). […] P values were calculated by unpaired Student's t-test.
DNA damage and telomere dysfunction assay (TIF). […] Mean fluorescence staining was quantified by flow cytometry. […]

The test system of assay [2] is NRAS mutant melanoma cells. Kind of assay: Telomere length, Southern blotting of TRF. The following applies: 1 μM for 14 days. As to the method:
FIGS. 2a-h. […] (FIGS. 2a-c) NRASmut melanoma cells (FIG. 2a), BRAF-V600E/NRAS mutant cells derived from melanoma patients resistant to BRAF/MEK inhibitors (FIG. 2b), or non-transformed melanocytes and fibroblasts (FIG. 2c) were treated with 6-thio-dG for 7 days. Cell viability was measured by Alamar Blue assay and calculated relative to DMSO-treated cells. (FIG. 2d) NRASmut melanoma cells and non-transformed human fibroblasts were treated with 1 or 5 μM 6-thio-dG for 7 or 14 days. Cell death was assessed by PSVUe staining. Percent of apoptotic cells is shown. (FIG. 2e) Cells were treated with DMSO or 1 μM 6-thio-dG for 14 days and telomere length was assessed by Southern blotting of TRF. Mean TRF length expressed as kilobase pairs is indicated at the bottom. (FIGS. 2f-g) Cells were treated with 1 μM 6-thio-dG for 7 days. (FIG. 2f) ROS production was measured by H2DCFDA fluorescence and normalized to MSO treated cells. (FIG. 2g) DNA damage was assessed by γH2AX staining. Data represent average from three independent experiments±SEM. *p<0.05; **p<0.01; ***p<0.005 in unpaired Student's t-test. […] Tumor volume was measured and average tumor volume (n=4)±SEM was plotted vs. time.
Telomere length assay. […] The images were analyzed with Phosphorimager, visualized by Typhoon 9410 Imager (GE Healthcare), and processed with ImageQuant 5.2 software (Molecular Dynamics).

Assay [3] has as its system NRAS-WT/BRAF-WT melanoma cells. Kind of assay: Cell death, Annexin V/PI. The following applies: single agents or combination; 1 μM 6-thio-dG, 5 μM Gam.

With `Nc1nc2c(ncn2[C@H]2C[C@H](O)[C@@H](CO)O2)c(=S)[nH]1` [6-thio-dG, 6-thio-2′-deoxy-guanosine], in assay [1], the TIFs result is “increased levels”. In addition, the “telomere length (mean TRF)” value in assay [2] is “without evidence for significant telomere shortening”. Also, the cell death result in assay [3] was “did not induce cell death”.

Source of the values: patent US20210113602A1, “USE OF 6-THIO-2'-DEOXYGUANOSINE (6-THIO-dG) TO TREAT MELANOMA” (The Board of Regents of the University of Texas System, priority 2018, published 2021).
